Our source for the clotting time values is patent US20100267638A1, “EXOSITE-DIRECTED THROMBIN INHIBITORS” (CLEVELAND STATE UNIVERSITY, priority 2003, published 2010).

This experiment in a line: Clotting time as a function of peptide concentration (FIG. 12). The settings on record: peptide 500 nM. From the text:
FIG. 12 is a graph illustrating clotting time as a function of concentration of various peptides of interest as follows: DYDYQ (SEQ ID NO. 11) (filled squares); DYDYQ (1, 2) (or as designated in shorthand form, D5Q1,2) (SEQ ID NO. 9) (filled triangles); DYDYQ-1 (SEQ ID NO. 7) (filled inverted triangles); and DYDYQ-2 (SEQ ID NO. 8) (filled diamonds).

No end group written: not given here.

Regarding DYDYQ [DYDYQ, Asp-Tyr-Asp-Tyr-Gln], the clotting time result was “relatively long clotting times”.
